Test results reported in ChEMBL document CHEMBL3826900, “Inhibitors for the bacterial ectonucleotidase Lp1NTPDase from Legionella pneumophila” (Bioorg Med Chem, 2016).
The source made the active and inactive calls. The calls are words filed in the database; no cut-off is given here.

Assays:
[1] = test system: Legionella pneumophila 130b; assay: Inhibition of recombinant Legionella pneumophila 130b His6-tagged NTPDase (41 to 393 residues) expressed in Escherichia coli BL21(DE3) cells using ADP as substrate at 30 uM incubated for 10 mins by capillary electrophoresis method relative to control
[2] = Inhibition of recombinant Legionella pneumophila 130b His6-tagged NTPDase (41 to 393 residues) expressed in Escherichia coli BL21(DE3) cells using ADP as substrate incubated for 10 mins by capillary electrophoresis method
[3] = Inhibition of recombinant Legionella pneumophila 130b His6-tagged NTPDase (41 to 393 residues) expressed in Escherichia coli BL21(DE3) cells using ADP as substrate incubated for 10 mins by Cheng-Prusoff equation analysis
[4] = test system: Legionella pneumophila 130b; assay: Competitive inhibition of recombinant Legionella pneumophila 130b His6-tagged NTPDase (41 to 393 residues) expressed in Escherichia coli BL21(DE3) cells at 3 to 6 uM incubated for 10 mins in presence of varying levels of ADP by Lineweaver-Burk plot analysis
[5] = target: T1, Ectonucleoside triphosphate diphosphohydrolase 1 (Homo sapiens, UniProt P49961); assay: Inhibition of recombinant human NTPDase1 expressed in CHO cells using ADP as substrate incubated for 10 mins by capillary electrophoresis method
T1 sequence (P49961 whole entry): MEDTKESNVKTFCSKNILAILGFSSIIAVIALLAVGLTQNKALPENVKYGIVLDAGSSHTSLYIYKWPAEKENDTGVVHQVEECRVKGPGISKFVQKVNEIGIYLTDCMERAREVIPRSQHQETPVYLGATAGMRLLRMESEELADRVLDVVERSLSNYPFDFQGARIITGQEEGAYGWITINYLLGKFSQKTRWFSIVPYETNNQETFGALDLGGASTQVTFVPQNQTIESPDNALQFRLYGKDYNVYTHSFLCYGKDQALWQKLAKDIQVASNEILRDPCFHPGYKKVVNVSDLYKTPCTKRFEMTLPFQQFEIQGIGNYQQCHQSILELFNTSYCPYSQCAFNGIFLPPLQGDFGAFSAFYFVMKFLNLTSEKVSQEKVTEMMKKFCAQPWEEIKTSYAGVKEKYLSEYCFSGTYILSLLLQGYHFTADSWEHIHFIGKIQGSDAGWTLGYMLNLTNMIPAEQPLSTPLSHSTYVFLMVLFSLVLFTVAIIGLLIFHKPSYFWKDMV

[6] = target: T2, Ectonucleoside triphosphate diphosphohydrolase 2 (Homo sapiens, UniProt Q9Y5L3); assay: Inhibition of recombinant human NTPDase2 expressed in CHO cells using ADP as substrate incubated for 10 mins by capillary electrophoresis method
T2 sequence (Q9Y5L3 whole entry): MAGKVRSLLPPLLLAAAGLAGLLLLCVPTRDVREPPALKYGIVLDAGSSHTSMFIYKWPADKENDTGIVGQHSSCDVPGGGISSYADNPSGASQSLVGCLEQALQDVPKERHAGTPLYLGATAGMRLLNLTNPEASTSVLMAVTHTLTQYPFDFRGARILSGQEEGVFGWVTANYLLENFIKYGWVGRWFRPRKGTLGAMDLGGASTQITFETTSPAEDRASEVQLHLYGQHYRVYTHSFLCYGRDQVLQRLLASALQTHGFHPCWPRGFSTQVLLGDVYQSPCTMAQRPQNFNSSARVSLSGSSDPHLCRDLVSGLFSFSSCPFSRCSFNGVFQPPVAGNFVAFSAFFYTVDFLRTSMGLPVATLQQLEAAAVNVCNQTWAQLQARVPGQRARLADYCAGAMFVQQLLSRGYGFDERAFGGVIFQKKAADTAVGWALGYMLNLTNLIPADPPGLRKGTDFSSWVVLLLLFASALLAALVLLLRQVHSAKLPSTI

[7] = target: T3, Ectonucleoside triphosphate diphosphohydrolase 3 (Homo sapiens) (UniProt O75355); assay: Inhibition of recombinant human NTPDase3 expressed in mouse NS0 cells using ADP as substrate at 30 uM incubated for 10 mins by capillary electrophoresis method relative to control
T3 sequence (whole entry): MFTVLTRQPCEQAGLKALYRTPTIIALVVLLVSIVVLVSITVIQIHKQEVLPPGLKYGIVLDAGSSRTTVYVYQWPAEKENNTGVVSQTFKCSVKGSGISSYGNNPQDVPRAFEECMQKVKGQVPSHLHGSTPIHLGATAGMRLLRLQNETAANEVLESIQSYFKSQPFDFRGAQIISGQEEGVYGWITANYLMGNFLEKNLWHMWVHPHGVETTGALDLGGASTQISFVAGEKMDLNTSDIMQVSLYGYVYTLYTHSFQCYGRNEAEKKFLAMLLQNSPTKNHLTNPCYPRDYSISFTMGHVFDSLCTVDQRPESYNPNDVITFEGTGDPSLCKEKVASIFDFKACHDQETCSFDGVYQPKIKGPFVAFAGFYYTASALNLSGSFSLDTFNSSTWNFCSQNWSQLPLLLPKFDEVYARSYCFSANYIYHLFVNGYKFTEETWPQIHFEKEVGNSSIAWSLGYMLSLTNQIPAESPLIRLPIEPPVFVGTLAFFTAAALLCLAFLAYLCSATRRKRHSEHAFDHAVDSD

[8] = test system: Legionella pneumophila 130b; conditions: 3 uM
[9] = test system: Legionella pneumophila 130b; conditions: 6 uM
[10] = test system: Legionella pneumophila 130b; conditions: 3 uM; remark: listed apart in the source
[11] = test system: Legionella pneumophila 130b; conditions: 6 uM; remark: listed apart in the source
[12] = Inhibition of Legionella pneumophila NTPDase

Structure (SMILES)	inhibition [1]	further results
Nc1c(S(=O)(=O)O)cc(Nc2cccc([N+](=O)[O-])c2)c2c1C(=O)c1ccccc1C2=O	44%	–
Nc1c(S(=O)(=O)O)cc(Nc2cccc(Br)c2)c2c1C(=O)c1ccccc1C2=O	44%	–
CCCNc1cc(S(=O)(=O)O)c(N)c2c1C(=O)c1ccccc1C2=O	inactive	–
Nc1c(S(=O)(=O)O)cc(Nc2cccc3cc(S(=O)(=O)O)ccc23)c2c1C(=O)c1ccccc1C2=O	30%	–
Nc1c(S(=O)(=O)O)cc(Nc2ccccc2F)c2c1C(=O)c1ccccc1C2=O	inactive	–
Nc1c(S(=O)(=O)O)cc(Nc2ccccc2)c2c1C(=O)c1ccccc1C2=O	31%	–
Nc1c(S(=O)(=O)O)cc(Nc2ccc(Nc3nc(Cl)nc(Cl)n3)c(S(=O)(=O)O)c2)c2c1C(=O)c1ccccc1C2=O	8%	–
Cc1ccccc1Nc1cc(S(=O)(=O)O)c(N)c2c1C(=O)c1ccccc1C2=O	44%	–
Nc1c(S(=O)(=O)O)cc(Nc2ccc3cc(C(=O)O)ccc3c2)c2c1C(=O)c1ccccc1C2=O	32%	–
Nc1c(S(=O)(=O)O)cc(Nc2cccc3c(S(=O)(=O)O)cccc23)c2c1C(=O)c1ccccc1C2=O	26%	–
Nc1c(S(=O)(=O)O)cc(Nc2cc3ccccc3c3ccccc23)c2c1C(=O)c1ccccc1C2=O	90%	IC50 [2]: 4.24 µM; Ki [3]: 2.99 µM; inhibition [4]: Active; IC50 [5]: 20 µM; IC50 [6]: 3 µM; inhibition [7]: 18%; Km [8]: 623 µM; Km [9]: 710 µM; Vmax [10]: 327 µmol/min/mg; Vmax [11]: 272 µmol/min/mg
Nc1c(S(=O)(=O)O)cc(NC2CCCCC2)c2c1C(=O)c1ccccc1C2=O	22%	–
Nc1c(S(=O)(=O)O)cc(NCCc2ccccc2)c2c1C(=O)c1ccccc1C2=O	inactive	–
Nc1c(S(=O)(=O)O)cc(Nc2ccc(Nc3nc(Cl)nc(Nc4ccccc4S(=O)(=O)O)n3)c(S(=O)(=O)O)c2)c2c1C(=O)c1ccccc1C2=O	45%	–
CCN(CC)c1ncnc2c1ncn2[C@@H]1O[C@H](COP(=O)(O)OP(=O)(O)OC(Br)(Br)P(=O)(O)O)[C@@H](O)[C@H]1O	–	Ki [12]: 500 µM
Nc1c(S(=O)(=O)O)cc(Nc2ccc3ccccc3c2)c2c1C(=O)c1ccccc1C2=O	51%	–
Nc1c(S(=O)(=O)O)cc(Nc2ccc(Cl)cc2)c2c1C(=O)c1ccccc1C2=O	66%	IC50 [2]: 17.6 µM; Ki [3]: 12.4 µM
CCOP(=O)(Cc1ccc(Nc2cc(S(=O)(=O)O)c(N)c3c2C(=O)c2ccccc2C3=O)cc1)OCC	inactive	–
Cc1ccc2ccccc2c1Nc1cc(S(=O)(=O)O)c(N)c2c1C(=O)c1ccccc1C2=O	76%	IC50 [2]: 13.6 µM; Ki [3]: 9.58 µM
Cc1cc(C)c(Nc2cc(S(=O)(=O)O)c(N)c3c2C(=O)c2ccccc2C3=O)c(C)c1	44%	–
Cc1cccc(Nc2cc(S(=O)(=O)O)c(N)c3c2C(=O)c2ccccc2C3=O)c1	53%	–
CCc1ccccc1Nc1cc(S(=O)(=O)O)c(N)c2c1C(=O)c1ccccc1C2=O	39%	–
Nc1c(S(=O)(=O)O)cc(Nc2cccc3ccccc23)c2c1C(=O)c1ccccc1C2=O	62%	IC50 [2]: 12.2 µM; Ki [3]: 8.59 µM
COc1ccccc1Oc1ccc(Nc2cc(S(=O)(=O)O)c(N)c3c2C(=O)c2ccccc2C3=O)cc1	28%	–
